The results in this text go back to patent publication US20250215029A1 (Recludix Pharma, Inc., priority 2022, published 2025).

Structures are written as SMILES.

T1 sequence (P40763 whole entry): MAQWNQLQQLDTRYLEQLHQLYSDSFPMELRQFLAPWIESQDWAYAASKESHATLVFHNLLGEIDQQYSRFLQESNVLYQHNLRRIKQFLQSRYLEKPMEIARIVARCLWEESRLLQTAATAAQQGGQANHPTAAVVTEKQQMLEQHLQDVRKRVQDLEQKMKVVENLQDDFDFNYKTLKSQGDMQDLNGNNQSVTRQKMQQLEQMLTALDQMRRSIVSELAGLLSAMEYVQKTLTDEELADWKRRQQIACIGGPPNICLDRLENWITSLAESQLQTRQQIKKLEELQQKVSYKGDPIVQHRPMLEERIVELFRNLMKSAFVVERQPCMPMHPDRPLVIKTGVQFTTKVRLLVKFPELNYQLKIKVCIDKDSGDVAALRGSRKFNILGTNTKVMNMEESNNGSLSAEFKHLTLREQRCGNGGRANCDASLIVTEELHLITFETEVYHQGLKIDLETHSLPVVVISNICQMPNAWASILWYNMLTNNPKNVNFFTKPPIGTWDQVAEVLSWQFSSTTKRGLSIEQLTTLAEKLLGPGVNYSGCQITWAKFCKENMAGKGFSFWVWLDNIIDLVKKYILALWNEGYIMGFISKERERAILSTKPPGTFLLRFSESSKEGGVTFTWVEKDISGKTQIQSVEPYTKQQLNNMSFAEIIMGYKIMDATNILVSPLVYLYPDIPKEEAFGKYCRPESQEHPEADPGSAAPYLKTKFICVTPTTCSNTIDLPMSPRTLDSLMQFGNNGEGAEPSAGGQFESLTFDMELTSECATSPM

The assay addresses T1, pY705-STAT3 in PBMC (Homo sapiens, UniProt P40763).
T1 construct: Cryopreserved Peripheral Blood Mononuclear Cells (PBMC) are from AllCells; host or cells: cryopreserved PBMC
The assay can be described thus: MSD-pSTAT-PBMC Assay (pSTAT3, IL-6 stimulated). The note with it: PBMC, compound 3 hrs, then 10 ng/mL IL-6 for 10 min; Table 115; read-out: STAT3. The format is cell-based. In short, it runs like this:
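Thawed human PBMC rested overnight in IMDM/10% FBS, then got compound for 3 hrs before a 10 min cytokine pulse: 1 ng/mL IL-4 for pSTAT6, 10 ng/mL IL-6 for pSTAT3. Lysates went to MSD sandwich capture on total STAT6 or STAT3 with phospho-specific detection. IC50 came from background-subtracted, DMSO-normalized signal.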
`COC[C@H](NP(=O)(Cc1ccc2sc(C(=O)N[C@H]3CCC[C@H]4CC[C@@H](C(=O)N5CC(c6cccnc6)C5)N4C3=O)cc2c1)Oc1ccccc1)C(=O)OCC(C)C` (stereo partly drawn) [Compound 945, isobutyl O-methyl-N-(((2-(((3S,6S,9aS)-5-oxo-3-(3-(pyridin-3-yl)azetidine-1-carbonyl)octahydro-1H-pyrrolo[1,2-a]azepin-6-yl)carbamoyl)benzo [b]thiophen-5-yl)methyl)(phenoxy)phosphoryl)-L-serinate]: the IC50 was 0.1 to 1 µM.

As to `COC[C@H](NP(=O)(Cc1ccc2sc(C(=O)N[C@H]3CCC[C@H]4CC[C@@H](C(=O)N5CC(c6cccnc6)C5)N4C3=O)cc2c1)Oc1ccccc1)C(=O)OCc1ccccc1` (stereo partly drawn) [Compound 946, benzyl O-methyl-N-(((2-(((3S,6S,9aS)-5-oxo-3-(3-(pyridin-3-yl)azetidine-1-carbonyl)octahydro-1H-pyrrolo[1,2-a]azepin-6-yl)carbamoyl)benzo [b]thiophen-5-yl)methyl)(phenoxy)phosphoryl)-L-serinate], the IC50 lay within 0.1 to 1 µM.

In the case of `CC[C@H](NP(=O)(Cc1ccc2sc(C(=O)N[C@H]3CCC[C@H]4CC[C@@H](C(=O)N5CC(c6cccnc6)C5)N4C3=O)cc2c1)Oc1ccccc1)C(=O)OCC(C)C` (stereo partly drawn) [Compound 947, isobutyl (2S)-2-((((2-(((3S,6S,9aS)-5-oxo-3-(3-(pyridin-3-yl)azetidine-1-carbonyl)octahydro-1H-pyrrolo[1,2-a]azepin-6-yl)carbamoyl)benzo [b]thiophen-5-yl)methyl)(phenoxy)phosphoryl)amino) butanoate], the IC50 was below 0.1 µM.

Turning to `CC(C)COC(=O)[C@@H](NP(=O)(Cc1ccc2sc(C(=O)N[C@H]3CCC[C@H]4CC[C@@H](C(=O)N5CC(c6cccnc6)C5)N4C3=O)cc2c1)Oc1ccccc1)C(C)C` (stereo partly drawn) [Compound 948, isobutyl (((2-(((3S,6S,9aS)-5-oxo-3-(3-(pyridin-3-yl)azetidine-1-carbonyl)octahydro-1H-pyrrolo[1,2-a]azepin-6-yl)carbamoyl)benzo [b]thiophen-5-yl)methyl) (phenoxy)phosphoryl)-L-valinate], the IC50 is 1 to 3 µM.

With `CCOC(=O)[C@@H](NP(=O)(Cc1ccc2sc(C(=O)N[C@H]3CCC[C@H]4CC[C@@H](C(=O)N5CC(c6cccnc6)C5)N4C3=O)cc2c1)Oc1ccccc1)C(C)C` (stereo partly drawn) [Compound 949, ethyl (((2-(((3S,6S,9aS)-5-oxo-3-(3-(pyridin-3-yl)azetidine-1-carbonyl)octahydro-1H-pyrrolo[1,2-a]azepin-6-yl)carbamoyl)benzo [b]thiophen-5-yl)methyl) (phenoxy)phosphoryl)-L-valinate], the IC50 was in the range of 1 to 3 µM.

With `CCCOC(=O)[C@H](C)NP(=O)(Oc1ccccc1)C(F)c1ccc2sc(C(=O)N[C@H]3CCCC[C@H]4CC[C@@H](C(=O)N5CC(OCC(F)F)(c6cccnc6)C5)N4C3=O)cc2c1` (stereo partly drawn) [Compound 950, propyl (((2-(((3S,6S,10aS)-3-(3-(2,2-difluoroethoxy)-3-(pyridin-3-yl)azetidine-1-carbonyl)-5-oxodeca-hydropyrrolo [1,2-a]azocin-6-yl)carbamoyl)benzo [b]thiophen-5-yl)fluoromethyl) (phenoxy)phosphoryl)-L-alaninate], the IC50 is below 0.1 µM.

Take `CCCOC(=O)[C@H](C)NP(=O)(Cc1ccc2sc(C(=O)N[C@H]3CCC[C@H]4CC[C@@H](C(=O)N5CC(c6cnccc6C)C5)N4C3=O)cc2c1)Oc1ccccc1` (stereo partly drawn) [Compound 951, propyl (((2-(((3S,6S,9aS)-3-(3-(4-methylpyridin-3-yl)azetidine-1-carbonyl)-5-oxooctahydro-1H-pyrrolo[1,2-a]azepin-6-yl)carbamoyl)benzo [b]thiophen-5-yl)methyl) (phenoxy)phosphoryl)-L-alaninate]: the IC50 was below 0.1 µM.

Turning to `CCCOC(=O)[C@H](C)NP(=O)(Oc1ccccc1)C(F)c1ccc2sc(C(=O)N[C@H]3CCC[C@H]4CC[C@@H](C(=O)N5CC6(C5)OCc5ccncc56)N4C3=O)cc2c1` (stereo partly drawn) [Compound 952, propyl ((fluoro(2-(((3S,6S,9aS)-5-oxo-3-(1′H-spiro [azetidine-3,3′-furo[3,4-c]pyridine]-1-carbonyl)octahydro-1H-pyrrolo[1,2-a]azepin-6-yl)carbamoyl)benzo [b]thiophen-5-yl)methyl) (phenoxy)phosphoryl)-L-alaninate], the IC50 lay within 0.1 to 1 µM.

On to `CCCOC(=O)[C@H](C)NP(=O)(Oc1ccccc1)C(F)c1ccc2sc(C(=O)N[C@H]3CCC[C@H]4CC[C@@H](C(=O)N5CC(c6cc(F)ccc6OC)C5)N4C3=O)cc2c1` (stereo partly drawn) [Compound 957, propyl ((fluoro(2-(((3S,6S,9aS)-3-(3-(5-fluoro-2-methoxyphenyl)azetidine-1-carbonyl)-5-oxooctahydro-1H-pyrrolo[1,2-a]azepin-6-yl)carbamoyl)benzo [b]thiophen-5-yl)methyl)(phenoxy)phosphoryl)-L-alaninate], for which the IC50 was above 3 µM.

With `CCCOC(=O)[C@H](C)NP(=O)(Oc1ccccc1)C(F)c1ccc2sc(C(=O)N[C@H]3CCCC[C@H]4CC[C@@H](C(=O)N[C@H]5CN(C(N)=O)C[C@@H]5F)N4C3=O)cc2c1` (stereo partly drawn) [Compound 958, propyl (((2-(((3S,6S,10aS)-3-(((3S,4S)-1-carbamoyl-4-fluoropyrrolidin-3-yl)carbamoyl)-5-oxodeca-hydropyrrolo [1,2-a]azocin-6-yl)carbamoyl)benzo [b]thiophen-5-yl)fluoromethyl) (phenoxy)phosphoryl)-L-alaninate], the IC50 is 1 to 3 µM.

Take `COC1(c2cnccc2C)CN(C(=O)[C@@H]2CC[C@@H]3CCC[C@H](NC(=O)c4cc5cc(C(F)(F)P(=O)(OCCSC(=O)CC(C)C)OCCSC(=O)CC(C)C)ccc5s4)C(=O)N32)C1` [Compound 963, S,S′-((((difluoro(2-(((3S,6S,9aS)-3-(3-methoxy-3-(4-methylpyridin-3-yl)azetidine-1-carbonyl)-5-oxooctahydro-1H-pyrrolo[1,2-a]azepin-6-yl)carbamoyl)benzo [b]thiophen-5-yl)methyl)phosphoryl)bis(oxy))bis(ethane-2,1-diyl)) bis(3-methylbutanethioate)]: the IC50 lay in the range of 0.1 to 1 µM.

For `CCCC(=O)SCCOP(=O)(OCCSC(=O)CCC)C(F)(F)c1ccc2sc(C(=O)N[C@H]3CCC[C@H]4CC[C@@H](C(=O)N5CC(c6nncn6C)C5)N4C3=O)cc2c1` [Compound 964, S,S′-((((difluoro(2-(((3S,6S,9aS)-3-(3-(4-methyl-4H-1,2,4-triazol-3-yl)azetidine-1-carbonyl)-5-oxooctahydro-1H-pyrrolo[1,2-a]azepin-6-yl)carbamoyl)benzo [b]thiophen-5-yl)methyl)phosphoryl)bis(oxy))bis(ethane-2,1-diyl)) dibutanethioate], the IC50 is 0.1 to 1 µM.

As for `CC(C)OC(=O)OCOP(=O)(Cc1ccc2[nH]c(C(=O)N[C@H]3CCC[C@H]4CC[C@@H](C(=O)N5CC(c6cccnc6)C5)N4C3=O)cc2c1)OCOC(=O)OC(C)C` [Compound 965, diisopropyl (((((2-(((3S,6S,9aS)-5-oxo-3-(3-(pyridin-3-yl)azetidine-1-carbonyl)octahydro-1H-pyrrolo[1,2-a]azepin-6-yl)carbamoyl)-1H-indol-5-yl)methyl)phosphoryl)bis(oxy))bis (methylene)) bis(carbonate)], the IC50 is 0.1 to 1 µM.

Turning to `CC(C)CC(=O)SCCOP(=O)(OCCSC(=O)CC(C)C)C(F)(F)c1ccc2sc(C(=O)N[C@H]3CCC[C@H]4CC[C@@H](C(=O)N5CC(c6nncn6C)C5)N4C3=O)cc2c1` [Compound 966, S,S′-((((difluoro(2-(((3S,6S,9aS)-3-(3-(4-methyl-4H-1,2,4-triazol-3-yl)azetidine-1-carbonyl)-5-oxooctahydro-1H-pyrrolo[1,2-a]azepin-6-yl)carbamoyl)benzo [b]thiophen-5-yl)methyl)phosphoryl)bis(oxy))bis(ethane-2,1-diyl)) bis(3-methylbutanethioate)], the IC50 is below 0.1 µM.

On to `Cn1cnnc1C1CN(C(=O)[C@@H]2CC[C@@H]3CCC[C@H](NC(=O)c4cc5cc(C(F)(F)P(=O)(OCCSC(=O)C(C)(C)C)OCCSC(=O)C(C)(C)C)ccc5s4)C(=O)N32)C1` [Compound 967, S,S′-((((difluoro(2-(((3S,6S,9aS)-3-(3-(4-methyl-4H-1,2,4-triazol-3-yl)azetidine-1-carbonyl)-5-oxooctahydro-1H-pyrrolo[1,2-a]azepin-6-yl)carbamoyl)benzo [b]thiophen-5-yl)methyl)phosphoryl)bis(oxy))bis(ethane-2,1-diyl)) bis(2,2-dimethyl-propanethioate)], for which the IC50 is below 0.1 µM.

On to `Cc1ccncc1C1CN(C(=O)[C@@H]2CC[C@@H]3CCC[C@H](NC(=O)c4cc5cc(C(F)(F)P(=O)(OCCSC(=O)C(C)(C)C)OCCSC(=O)C(C)(C)C)ccc5s4)C(=O)N32)C1` [Compound 968, S,S′-((((difluoro(2-(((3S,6S,9aS)-3-(3-(4-methylpyridin-3-yl)azetidine-1-carbonyl)-5-oxooctahydro-1H-pyrrolo[1,2-a]azepin-6-yl)carbamoyl)benzo [b]thiophen-5-yl)methyl)phosphoryl)bis(oxy))bis(ethane-2,1-diyl))bis(2,2-dimethyl-propanethioate)], for which the IC50 is below 0.1 µM.

As for `CCCCOC(=O)[C@@H]1CCCN1P(=O)(Oc1ccccc1)C(F)(F)c1ccc2sc(C(=O)N[C@H]3CCC[C@H]4CC[C@@H](C(=O)N5CC(c6cccnc6)C5)N4C3=O)cc2c1` (stereo partly drawn) [Compound 969, butyl ((difluoro(2-(((3S,6S,9aS)-5-oxo-3-(3-(pyridin-3-yl)azetidine-1-carbonyl)octahydro-1H-pyrrolo[1,2-a]azepin-6-yl)carbamoyl)benzo [b]thiophen-5-yl)methyl)(phenoxy)phosphoryl)-L-prolinate], the IC50 is above 3 µM.
